For 17 compounds, EC50 and inhibition results are on record in patent publication US10392383B2, “3-(1H-benzo[d]imidazol-2-yl)-1H-pyrazolo[4,3-b]pyridines and therapeutic uses thereof” (Samumed, LLC, priority 2015, dated 2019).

For one assay, the system named is IL-6 (THP-1 cells). Kind of assay: IL-6 inhibition in LPS-stimulated THP-1 monocytes (HTRF). To be noted: Homo sapiens, IL-6 HTRF; for EC50: 500 ng/mL LPS, Table 6; for inhibition at 10 µM: LPS, Table 6, read-out: percent inhibition at 10 μM (given in parentheses for EC50 >10 μM). The class given is cell-based. The method, then:
Human Monocyte Cell Culture: Human monocyte cell line (THP-1 cells; Catalog # TIB-202, ATCC, Manassas, Va.) were cultured in Roswell Park Memorial Institute (RPMI) 1640 Medium (Catalog #21870-100, Buffalo, N.Y.) with 1% L-glutamine, 1% HEPES, 1% Sodium Pyruvate, 2% Sodium Bicarbonate supplemented with 100 units/mL penicillin, 50 μg/mL streptomycin, 2-mercaptoethanol (0.05 mM) [basal medium] and 10% fetal bovine serum (Catalog #16140089, Life Technologies, Carlsbad, Calif.) at 37° C. and 5% CO2.
Compound Screening: THP-1 cells were cultured in basal media with 1% FBS for 24 hours before the start of the assay. Each compound was dissolved in DMSO as a 10 mM stock and used to prepare compound source plates. Serial dilution (1:3, 10-point dose-response curves starting from 10 μM) and compound transfer was performed using the ECHO 550 (Labcyte, Sunnyvale, Calif.) into 384-well white low volume assay plates (Greiner Bio-One) with appropriate DMSO backfill for a final DMSO concentration of 0.1%. THP-1 cells were plated at 5000 cells/well in the 384-well plates and incubated at 37° C. for 2 h. 500 ng/mL of LPS was added after 2 hours and cells were incubated for another 22 hours at 37° C. Plates were spun in a centrifuge for 1 minute at […] and a mixture of anti-IL6 XL665, and anti-IL6 Cryptate diluted in reconstitution buffer (Cisbio Inc.) was added to each well. Following incubation for 3 hrs at room temperature, Homogeneous Time-Resolved Fluorescence (HTRF) was measured using the Envision (Perkin Elmer) at 665 nm and […]. The ratio of fluorescence at 665 nm to 620 nm was used as a readout for IL6 quantification. All samples were processed in duplicate. Readings were normalized to DMSO treated cells and normalized activities were utilized for EC50 calculations using the dose-response log (inhibitor) vs. response-variable slope (four parameters) nonlinear regression feature available in GraphPad Prism 5.0 (or Dotmatics). For EC50 of >10 μM, the percent inhibition at 10 μM is provided.

In assay [1] the test system is Wnt activity (Sp5-Luc reporter, Wnt-responsive promoter) in SW480 colon carcinoma cells. Kind of assay: Wnt activity screening assay: Sp5-Luc reporter gene assay in SW480 cells. The class given is cell-based. To be noted: Homo sapiens; for inhibition at 10 µM: read-out: percent inhibition at 10 μM (given for EC50 of >10 μM); for EC50: overnight incubation, 10-point curve starting from 10 μM. The text has this:
The screening assay for Wnt activity is described as follows. Reporter cell lines can be generated by stably transducing cancer cell lines (e.g., colon cancer) or primary cells (e.g., IEC-6 intestinal cells) with a lentiviral construct that includes a Wnt-responsive promoter driving expression of the firefly luciferase gene.
SW480 colon carcinoma cells were transduced with a lentiviral vector expressing luciferase with a human Sp5 promoter consisting of a sequence of eight TCF/LEF binding sites. SW480 cells stably expressing the Sp5-Luc reporter gene and a hygromycin resistance gene were selected by treatment with 150 μg/mL of hygromycin for 7 days. These stably transduced SW480 cells were expanded in cell culture and used for all further screening activities. Each compound was dissolved in DMSO as a 10 mM stock and used to prepare compound source plates. Serial dilution (1:3, 10-point dose-response curves starting from 10 μM) and compound transfer was performed using the ECHO 550 (Labcyte, Sunnyvale, Calif.) into 384-well white solid bottom assay plates (Greiner Bio-One) with appropriate DMSO backfill for a final DMSO concentration of 0.1%. For Sp5-Luc reporter gene assays, the cells were plated at 4,000 cells/well in 384-well plates with medium containing 1% fetal bovine serum and incubated overnight at 37° C. and 5% CO2. Following incubation, 20 μl of BrightGlo luminescence reagent (Promega) was added to each well of the 384-well assay plates. The plates were placed on an orbital shaker for 2 min and then luminescence was quantified using the Envision (Perkin Elmer) plate reader. Readings were normalized to DMSO only treated cells, and normalized activities were utilized for EC50 calculations using the dose-response log (inhibitor) vs. response-variable slope (four parameters) nonlinear regression feature available in GraphPad Prism 5.0 (or Dotmatics). For EC50 of >10 μM, the percent inhibition at 10 μM is provided.

`Fc1cccc(-c2cccc3[nH]c(-c4n[nH]c5ccc(-c6cnccn6)nc45)nc23)c1` [Compound 520, 3-(4-(3-Fluorophenyl)-1H-benzo[d]imidazol-2-yl)-5-(pyrazin-2-yl)-1H-pyrazolo[4,3-b]pyridine]: in the assay with IL-6 (THP-1 cells), the EC50 is above 10 µM and the inhibition at 10 µM amounted to 43.3%. Moreover, in assay [1], the inhibition at 10 µM was 26% and the EC50 is above 10 µM.

As for `c1cc(-c2ccncc2)c2nc(-c3n[nH]c4ccc(-c5cncc(OC6CCNCC6)c5)nc34)[nH]c2c1` [Compound 576, 5-(5-(Piperidin-4-yloxy)pyridin-3-yl)-3-(4-(pyridin-4-yl)-1H-benzo[d]imidazol-2-yl)-1H-pyrazolo[4,3-b]pyridine], in the assay on IL-6 (THP-1 cells), the EC50 is above 10 µM and the inhibition at 10 µM was 37%. In assay [1], the inhibition at 10 µM turned out to be 25.7% and the EC50 was above 10 µM.

As for `c1ccc(COc2cncc(-c3ccc4[nH]nc(-c5nc6c(-c7ccncc7)cccc6[nH]5)c4n3)c2)cc1` [Compound 582, 5-(5-(Benzyloxy)pyridin-3-yl)-3-(4-(pyridin-4-yl)-1H-benzo[d]imidazol-2-yl)-1H-pyrazolo[4,3-b]pyridine], in the assay with IL-6 (THP-1 cells), the half-maximal effective concentration (EC50) is above 10 µM and the inhibition at 10 µM came to 2.8%. In addition, in assay [1], the inhibition at 10 µM is 39.1% and the EC50 is above 10 µM.

For `c1cc(-c2ccncc2)c2nc(-c3n[nH]c4ccc(-c5cnccn5)nc34)[nH]c2c1` [Compound 584, 5-(Pyrazin-2-yl)-3-(4-(pyridin-4-yl)-1H-benzo[d]imidazol-2-yl)-1H-pyrazolo[4,3-b]pyridine], in the assay with IL-6 (THP-1 cells), the EC50 is above 10 µM and the inhibition at 10 µM is 14.7%. In assay [1], the inhibition at 10 µM is 7.4% and the half-maximal effective concentration (EC50) is above 10 µM.

`O=C(CC1CCNCC1)Nc1cncc(-c2ccc3[nH]nc(-c4nc5c(-c6ccccn6)cccc5[nH]4)c3n2)c1` [Compound 593, 2-(Piperidin-4-yl)-N-(5-(3-(4-(pyridin-2-yl)-1H-benzo[d]imidazol-2-yl)-1H-pyrazolo[4,3-b]pyridin-5-yl)pyridin-3-yl)acetamide]: the EC50 in the assay on IL-6 (THP-1 cells) is 0.929 µM; in assay [1] it was above 10 µM. In addition, the inhibition at 10 µM in assay [1] worked out at 26.6%.

As for `Cc1cn(-c2cccc3[nH]c(-c4n[nH]c5ccc(C6=CCNCC6)nc45)nc23)cn1` [Compound 618, 3-(4-(4-Methyl-1H-imidazol-1-yl)-1H-benzo[d]imidazol-2-yl)-5-(1,2,3,6-tetrahydropyridin-4-yl)-1H-pyrazolo[4,3-b]pyridine], the EC50 (with IL-6 (THP-1 cells); in assay [1]) was above 10 µM in each case. The inhibition at 10 µM in the assay with IL-6 (THP-1 cells) was found to be 42%; in assay [1] it was 1.2%.

In the assay with IL-6 (THP-1 cells), `Cc1cn(-c2cccc3[nH]c(-c4n[nH]c5ccc(-c6cncc(N7CC(N)C7)n6)nc45)nc23)cn1` [Compound 622, 1-(6-(3-(4-(4-Methyl-1H-imidazol-1-yl)-1H-benzo[d]imidazol-2-yl)-1H-pyrazolo[4,3-b]pyridin-5-yl)pyrazin-2-yl)azetidin-3-amine] yielded an EC50 of 0.38 µM. Further, in assay [1], the inhibition at 10 µM was found to be 12.6% and the EC50 was above 10 µM.

On to `Cc1cn(-c2cccc3[nH]c(-c4n[nH]c5ccc(-c6cncc(OCCN(C)C)c6)nc45)nc23)cn1` [Compound 627, N,N-Dimethyl-2-((5-(3-(4-(4-methyl-1H-imidazol-1-yl)-1H-benzo[d]imidazol-2-yl)-1H-pyrazolo[4,3-b]pyridin-5-yl)pyridin-3-yl)oxy)ethan-1-amine], for which the EC50 in the assay with IL-6 (THP-1 cells) is 1 µM; in assay [1], above 10 µM. For the same compound, the inhibition at 10 µM in assay [1] was 38.1%.

In turn, `CN1CCN(c2cccc3[nH]c(-c4n[nH]c5ccc(-c6cnccn6)nc45)nc23)CC1` [Compound 648, 3-(4-(4-Methylpiperazin-1-yl)-1H-benzo[d]imidazol-2-yl)-5-(pyrazin-2-yl)-1H-pyrazolo[4,3-b]pyridine] had an EC50 in the assay on IL-6 (THP-1 cells) of 0.0695 µM. Besides, in assay [1], the inhibition at 10 µM turned out to be 37.9% and the EC50 was above 10 µM.

Take `c1ccc2[nH]c(-c3n[nH]c4ccc(-c5cn[nH]c5)nc34)nc2c1` [Compound 651, 3-(1H-Benzo[d]imidazol-2-yl)-5-(1H-pyrazol-4-yl)-1H-pyrazolo[4,3-b]pyridine]: in the assay on IL-6 (THP-1 cells), the half-maximal effective concentration (EC50) was above 10 µM and the inhibition at 10 µM stood at 0%. In addition, in assay [1], the inhibition at 10 µM turned out to be 40.2% and the EC50 is above 10 µM.

Consider `c1ccc2[nH]c(-c3n[nH]c4ccc(-c5cncc(OC6CCNCC6)c5)nc34)nc2c1` [Compound 656, 3-(1H-Benzo[d]imidazol-2-yl)-5-(5-(piperidin-4-yloxy)pyridin-3-yl)-1H-pyrazolo[4,3-b]pyridine], for which the figures for the EC50 (with IL-6 (THP-1 cells); in assay [1]) were 1.4 µM and above 10 µM, respectively. Besides, the inhibition at 10 µM in assay [1] was 4.9%.

Take `Oc1cncc(-c2ccc3[nH]nc(-c4nc5ccccc5[nH]4)c3n2)c1` [Compound 661, 5-(3-(1H-Benzo[d]imidazol-2-yl)-1H-pyrazolo[4,3-b]pyridin-5-yl)pyridin-3-ol]: the EC50 (in the assay with IL-6 (THP-1 cells); in assay [1]) was above 10 µM throughout. Moreover, the values for the inhibition at 10 µM (with IL-6 (THP-1 cells); in assay [1]) were 50.9% and 32.4%, respectively.

Regarding `O=C(CC1CCNCC1)Nc1cncc(-c2ccc3[nH]nc(-c4nc5c(-c6ccsc6)cccc5[nH]4)c3n2)c1` [Compound 673, 2-(Piperidin-4-yl)-N-(5-(3-(4-(thiophen-3-yl)-1H-benzo[d]imidazol-2-yl)-1H-pyrazolo[4,3-b]pyridin-5-yl)pyridin-3-yl)acetamide], in the assay with IL-6 (THP-1 cells), the EC50 is above 10 µM and the inhibition at 10 µM came out at 24.8%. For the same compound, in assay [1], the inhibition at 10 µM is 14.9% and the EC50 is above 10 µM.

`Cc1ncc(-c2ccc3[nH]nc(-c4nc5c(-c6ccoc6)cccc5[nH]4)c3n2)n1C` [Compound 685, 5-(1,2-Dimethyl-1H-imidazol-5-yl)-3-(4-(furan-3-yl)-1H-benzo[d]imidazol-2-yl)-1H-pyrazolo[4,3-b]pyridine]: the concentration giving a half-maximal response (EC50) was 9.37 µM with IL-6 (THP-1 cells) and 0.257 µM in assay [1].

For `c1cc(-c2ccoc2)c2nc(-c3n[nH]c4ccc(-c5cncc(OCCN6CCCC6)c5)nc34)[nH]c2c1` [Compound 690, 3-(4-(Furan-3-yl)-1H-benzo[d]imidazol-2-yl)-5-(5-(2-(pyrrolidin-1-yl)ethoxy)pyridin-3-yl)-1H-pyrazolo[4,3-b]pyridine], the figures for the EC50 (in the assay with IL-6 (THP-1 cells); in assay [1]) were 0.0939 µM and 4.21 µM, respectively.

`COc1cncc(-c2ccc3[nH]nc(-c4nc5c(-c6ccoc6)cccc5[nH]4)c3n2)c1` [Compound 692, 3-(4-(Furan-3-yl)-1H-benzo[d]imidazol-2-yl)-5-(5-methoxypyridin-3-yl)-1H-pyrazolo[4,3-b]pyridine]: the EC50 was above 10 µM in the assay with IL-6 (THP-1 cells) and 1.37 µM in assay [1]. In addition, in the assay on IL-6 (THP-1 cells), the inhibition at 10 µM turned out to be 53.2%.

As to `Cn1cc(-c2ccc3[nH]nc(-c4nc5c(-c6cccs6)cccc5[nH]4)c3n2)cn1` [Compound 700, 5-(1-Methyl-1H-pyrazol-4-yl)-3-(4-(thiophen-2-yl)-1H-benzo[d]imidazol-2-yl)-1H-pyrazolo[4,3-b]pyridine], in the assay on IL-6 (THP-1 cells), the EC50 was above 10 µM and the inhibition at 10 µM came out at 27.4%. Moreover, in assay [1], the inhibition at 10 µM came to 37.8% and the EC50 was above 10 µM.

In general, EC50 refers to the concentration needed to bring the measured effect to its halfway point. In general, inhibition refers to the change of the read-out against control, counted positive when it falls.
